Laboratory results taken from patent US20210254000A1, “PROCESS FOR PRODUCING A T CELL COMPOSITION” (Juno Therapeutics, Inc., priority 2017, published 2021).

Experiments:
Type in all cases: cell-based, human
[1] = system: anti-CD19 CAR-T cells co-cultured with irradiated K562-CD19 target cells; assay: Cytokine secretion after antigen stimulation (Luminex); conditions: cells expanded with 200 nM PI-103 or 1 μM Compound 63; E:T 1:1, ~16 hours
Protocol: (§1) Separate compositions of CD4+ and CD8+ cells were isolated from three human donors, activated and transduced with a viral vector encoding an anti-CD19 CAR substantially as described in Example 2. After transduction, the CD4+ and CD8+ T cells derived from each donor were separately incubated for 8 days in the presence of a mTOR kinase inhibitor to expand T cells substantially as described in Example 2, except in the presence of 200 nM PI-103, 1 μM Compound 63, or with DMSO vehicle or media only controls. CD4+ and CD8+ T cells from each donor were then separately harvested, formulated, and cryofrozen. The cryofrozen engineered CD4+ and CD8+ T cells were thawed, washed to remove compound, and cells from the same donor were then combined at a ratio of 1:1 viable CD4+/CAR+ to viable CD8+/CAR+ T cells to produce an expanded anti-CD19 CAR-T cell composition containing CD4+ and CD8+ T cells. Functional activities of the generated anti-CD19 CAR-T cell compositions were assessed.
To measure cytokines following antigen stimulation, cells from the generated anti-CD19 CAR-T cell compositions were co-cultured with irradiated K562-CD19 target cells or K562 parental target cells at an effector:target cell ratio of 1:1. After overnight (˜16 hours) culture, cell culture supernatants were harvested and TNF-alpha, IFN-gamma, and IL-2 cytokine production were measured using a Luminex Multiplex Assay. The fold-change of cytokine production observed in co-culture supernatants was determined from generated anti-CD19 CAR-T cell compositions expanded in the presence of PI-103, Compound 63, or DMSO vehicle compared to cells expanded in media only.

anti-CD19 CAR-T cells = assay: CAR-specific expansion with anti-idiotype antibody conjugated beads; conditions: anti-idiotype beads 1:1, 15 days; relative to media only
Protocol: as §1, with “The cryofrozen engineered CD4+ and CD8+ T cells were thawed, washed to remove compound, and cells from the same donor were then combined at a ratio of 1:1 viable CD4+/CAR+ to viable CD8+/CAR+ T cells to produce an expanded anti-CD19 CAR-T cell composition containing CD4+ and CD8+ T cells.” left out
The ability of the cells to expand following stimulation of the CAR was assessed by incubating cells of the generated anti-CD19 CAR-T cell compositions with beads surface conjugated with an anti-idiotype antibody specific to the anti-CD19 CAR. […] The total live T cells per well was determined by counting cells in the cultures every 5 days (FIG. 8A). The mean area under the curve (AUC) as a function of T cell number over time was calculated relative to the AUC of cells expanded with media only (FIG. 8B).

[2] = system: anti-CD19 CAR-T cells stimulated with irradiated K562-CD19 target cells; assay: Secondary cytokine response after anti-idiotype bead expansion; conditions: for secondary cytokine production following subsequent stimulation with antigen: cells harvested at day 11 after anti-idiotype bead expansion, K562-CD19 1:1, approximately 16 hours
anti-CD19 CAR+ T cells = assay: Chronic stimulation assay with anti-ID conjugated beads (14 days); conditions: inhibitor present from initiation of stimulation; for primary or secondary cytolytic response: 3:1 effector:target cell ratio; for primary or secondary responses: ability of CAR-T cell compositions to produce cytokines: at thaw or after 14 day anti-ID bead stimulation, K562-CD19 1:1
Excerpt: Separate compositions of CD4+ and CD8+ cells were isolated from human donors, stimulated by activation with anti-CD3/anti-CD28 magnetic beads and transduced with a viral vector encoding an anti-CD19 CAR having an scFv derived from FMC63. Following cultivation under conditions to expand the cells, T cell compositions containing engineered CD4+ and CD8+ T cells from each donor were then separately harvested, formulated, and cryofrozen. The cryofrozen engineered CD4+ and CD8+ T cells were thawed and formulated at a 1:1 ratio of CD4+ and CD8+ T cells from the same donor to generate a T cell composition containing CAR+ T cells. Anti-idiotype (ID) antibody conjugated beads against the anti-CD19 CAR were incubated with cells at a 1:1 bead:cell ratio for 14 days.
Secondary response of CAR-T cells harvested at day 14 following CAR-specific stimulation with anti-ID conjugated beads (Day 14; secondary) was assessed after stimulation with K562-CD19 antigen-expressing target cells at an effector to target ratio of 1:1 (to assess cytokine levels) or 3:1 (to assess cytolytic activity). The primary response of T cells from the T cell composition that had not been incubated with the anti-ID conjugated beads also was determined by similar stimulation with antigen-expressing cells (Day 0; “primary”). To assess cytolytic activity, the target cells were labeled with NucLight Red (NLR) to permit tracking by fluorescent microscopy. Killing activity was assessed by measuring the loss of viable target cells over 72 hours, as determined by loss of fluorescent signal over time by kinetic fluorescence microscopy (using the INCUCYTE® Live Cell Analysis System, Essen Bioscience). Killing index was determined as the inverse of the area under the curve (AUC) for target fluorescence over time. Intracellular cytokine levels of IL-2 and TNF-alpha were assessed by flow cytometry in co-cultured T cells after incubation in the presence of a Golgi Inhibitor. […]
Primary response of CAR-T cell compositions at thaw (no stimulation with anti-ID conjugated beads) or secondary response of CAR-stimulated CAR-T compositions (following 14 day CAR-specific stimulation with anti-ID conjugated beads) was assessed after stimulation with antigen-expressing cells. CAR-T cell compositions were cultured 1:1 with K562-CD19 antigen-expressing cells in the presence of a Golgi Inhibitor, and polyfunctional cytokine production was assessed by flow cytometry following intracellular cytokine staining for IL-2, IFN-gamma and TNF-alpha. A polyfunctional score was determined from cumulative levels of cytokines as determined in CD8+ cells after the data were normalized by scaling within donor cohorts (FIG. 13A). […]

phospho-S6 = assay: Antigen-dependent CAR signaling (phospho-S6) in expanded CAR-T cells; conditions: cells expanded with 200 nM PI-103 or 1 μM Compound 63, washed; 20 hours co-culture 1:1
Protocol: as §1
Antigen-dependent signaling of CAR-T cells among generated anti-CD19 CAR-T cell compositions was assessed by monitoring activation of phospho-S6. […] After 20 hours, cells were assessed, for intracellular S6 phosphorylation and co-stained for surface expression of CD4 or CD8, by flow cytometry.

| Compound | cytokine production (TNF-alpha, IFN-gamma, IL-2) compared to control cells [1] | production of IFN-gamma compared to control cells [1] | mean AUC of live T cell number over time compared to DMSO vehicle (anti-CD19 CAR-T cells) | secondary cytokine production following subsequent stimulation with antigen [2] | frequency of CD8+ T cells that were CD107a+IFNγ+ ([2]; some donor-derived cells, day 11, Golgi Inhibitor 4 hours) | primary or secondary cytolytic response (anti-CD19 CAR+ T cells) | primary or secondary responses: ability of CAR-T cell compositions to produce cytokines (anti-CD19 CAR+ T cells) | phospho-S6 staining after antigen stimulation vs DMSO vehicle or media only (phospho-S6) |
| --- | --- | --- | --- | --- | --- | --- | --- | --- |
| CC(C)c1ccccc1-n1c(=O)[nH]c2c(C(N)=O)nc(-c3cccc(O)c3)nc21 [Compound 63, 2-(3-Hydroxyphenyl)-9-(2-isopropylphenyl)-8-oxo-8,9-dihydro-7H-purine-6-carboxamide] | improvements in cytokine production | improved | larger mean AUC | improved secondary cytokine production | increased frequency of CD8+ T cells that were CD107a+IFNγ+ cells | Improvements in primary or secondary cytolytic response | improved primary or secondary responses | similar |
| Oc1cccc(-c2nc(N3CCOCC3)c3oc4ncccc4c3n2)c1 [PI-103, reference compound] | improvements in cytokine production | improved | larger mean AUC | improved secondary cytokine production | – | Improvements in primary or secondary cytolytic response | improved primary or secondary responses | similar |
